In patent EP0626016B1, “[…] […]” (BRITISH TECHNOLOGY GROUP LIMITED, priority 1992, dated 1993):

How the values were obtained:
[1] = molecular target: T1, Arthromyces ramosus peroxidase (Arthromyces ramosus, UniProt P28313); assay: PBBA enhancement with different peroxidase enzymes (Example 4); format: biochemical
T1 sequence (P28313 21-364): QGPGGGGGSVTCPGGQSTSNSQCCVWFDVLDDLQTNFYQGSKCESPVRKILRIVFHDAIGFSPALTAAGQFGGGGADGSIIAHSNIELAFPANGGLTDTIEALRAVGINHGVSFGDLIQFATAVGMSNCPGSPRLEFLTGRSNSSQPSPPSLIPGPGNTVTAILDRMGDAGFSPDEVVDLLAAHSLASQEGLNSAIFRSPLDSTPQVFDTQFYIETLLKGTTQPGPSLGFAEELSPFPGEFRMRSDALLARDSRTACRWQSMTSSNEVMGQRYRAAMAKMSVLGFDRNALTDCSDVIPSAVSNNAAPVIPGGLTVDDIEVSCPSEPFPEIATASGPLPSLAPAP
Protocol: Stock solutions (1mg/ml in 0.1mol/l Tris buffer, pH 8.6) of horseradish peroxidase Type VII, Type VIII and Arthromyces ramosus peroxidase (Sigma) were prepared. The luminol-hydrogen peroxide reagent was prepared as described previously. Luminol-hydrogen peroxide reagent (100µl, 1:10 dilution), either 40µl of PBBA (0.01mg/ml in 0.1mol/l Tris buffer, pH 8.6) or as a control, 40µl of Tris buffer (0.1mol/l, pH 8.6), and 10µl of HRP Type VII (1:50,000 dilution, 2ng) were added to a cuvette. The reagents were mixed and the light emission was recorded after 5 minutes using a Berthold Biolumat LB9500C.
The above experiment was repeated and the HRP Type VII was replaced by HRP Type VIII (2ng) or Arthromyces ramosus peroxidase (20pg).

HRP Type VII = assay: as above; format: biochemical, horseradish; conditions: for Signal Reagent with PBBA: 40µl of PBBA 0.01mg/ml
Protocol: Stock solutions (1mg/ml in 0.1mol/l Tris buffer, pH 8.6) of horseradish peroxidase Type VII, Type VIII and Arthromyces ramosus peroxidase (Sigma) were prepared. […] Luminol-hydrogen peroxide reagent (100µl, 1:10 dilution), either 40µl of PBBA (0.01mg/ml in 0.1mol/l Tris buffer, pH 8.6) or as a control, 40µl of Tris buffer (0.1mol/l, pH 8.6), and 10µl of HRP Type VII (1:50,000 dilution, 2ng) were added to a cuvette. The reagents were mixed and the light emission was recorded after 5 minutes using a Berthold Biolumat LB9500C.

[2] = molecular target: T2, Anti-mouse IgG (whole molecule) peroxidase conjugate (Armoracia rusticana, UniProt P00433); assay: Assay of peroxidase-antibody conjugate utilizing PBBA (Example 5); format: biochemical; conditions: for Signal (with PBBA): 40µl of PBBA 0.01 mg/ml; for Signal: Background: with PBBA
T2 sequence (P00433 31-338 limits assumed): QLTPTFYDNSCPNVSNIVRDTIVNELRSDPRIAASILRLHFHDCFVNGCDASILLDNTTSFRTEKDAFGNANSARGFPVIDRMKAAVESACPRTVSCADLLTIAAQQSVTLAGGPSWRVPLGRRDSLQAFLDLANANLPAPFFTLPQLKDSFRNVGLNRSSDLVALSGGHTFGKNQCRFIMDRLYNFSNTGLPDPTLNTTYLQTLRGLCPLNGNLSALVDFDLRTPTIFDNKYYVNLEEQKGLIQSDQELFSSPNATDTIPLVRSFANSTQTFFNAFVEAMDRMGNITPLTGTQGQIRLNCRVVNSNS
Protocol: Anti-mouse IgG (whole molecule) peroxidase conjugate (Sigma Chemical Co.) was diluted (1:5000) in 0.1 mol/l Tris buffer (pH 8.6). The luminol-hydrogen peroxide was prepared as described previously. The following reagents were added to a cuvette: 100µl of luminol-hydrogen peroxide (1:10 dilution), either 40µl of PBBA (0.01 mg/ml in 0.1 mol/l Tris buffer) or as a control, 40µl of Tris buffer (0.1 mol/l, pH 8.6), and different amounts of anti-mouse IgG (5µl, 10µl, 20µl, 30µl, 40µl). The reagents were mixed and the light emission was measured using a Berthold Biolumat LB9500C.

[3] = in the presence of PBBA, result in words

Signal Reagent with PBBA ([1]; Arthromyces ramosus peroxidase 20pg, 40µl of PBBA 0.01mg/ml, after 5 minutes): 58,208
Signal: Background ([1]; Arthromyces ramosus peroxidase, with PBBA): 2.1
Signal Reagent with PBBA (HRP Type VII; Blank (no peroxidase)): 27,820
Signal Reagent with PBBA (HRP Type VII; HRP Type VII 2ng, after 5 minutes): 49,703
Signal: Background (HRP Type VII; HRP Type VII, with PBBA): 1.8
signal to background ratio (HRP Type VII; in all cases (HRP Type VII, Type VIII, Arthromyces ramosus peroxidase), result in words): improved in all cases
Signal (with PBBA) ([2]; Anti-mouse IgG-HRP 0 (µl)): 18,832
Signal (with PBBA) ([2]; Anti-mouse IgG-HRP 5 (µl), 1:5000 dilution): 27,665
Signal: Background ([2]; Anti-mouse IgG-HRP 5 (µl)): 1.5
Signal (with PBBA) ([2]; Anti-mouse IgG-HRP 10 (µl), 1:5000 dilution): 32,849
Signal: Background ([2]; Anti-mouse IgG-HRP 10 (µl)): 1.7
Signal (with PBBA) ([2]; Anti-mouse IgG-HRP 20 (µl), 1:5000 dilution): 68,994
Signal: Background ([2]; Anti-mouse IgG-HRP 20 (µl)): 3.7
Signal (with PBBA) ([2]; Anti-mouse IgG-HRP 30 (µl), 1:5000 dilution): 407,087
Signal: Background ([2]; Anti-mouse IgG-HRP 30 (µl)): 21.6
light emission [2, 3]: increased
signal to background ratio for the assay of the HRP conjugate [2, 3]: significantly improved
Structure (SMILES): OB(O)c1ccc(Br)cc1 [PBBA, para-bromophenylboronic acid]
level of light output (HRP Type VII; any of the peroxidases tested (HRP Type VII, Type VIII, Arthromyces ramosus peroxidase), result in words): did not increase the level of light output
